The test system of data set [1] is caco-2 cells. Nature of the data set: Evaluation Test 2: perfusion of fluorescent dyes through the tubular-form culture substrate, absorption into cultured cells. It is filed as in vitro ADME. The settings on record: HBSS, flow rate 0.05 mL min^-1 for 1 hour; calcein 100 μmol L^-1, Texas Red 10 μmol L^-1. The method, then: Specifically, caco-2 cells imitating intestinal epithelium were cultured on a culture substrate. Caco-2 cells produced by DS pharma biomedical Co., Ltd. were used. The caco-2 cells were cultured in DMEM (Dulbecco-modified eagle's medium) to which 10% heat inactivated fetal bovine serum, penicillin G (100 U mL^−1), streptomycin (100 μg mL^−1), and 1% non-essential amino acid were added, under an environment at 37° C., 5% CO2), and 95% air. The caco-2 cells were dissociated in EDTA and 0.05% trypsin and passaged, and then the cells were seeded on collagen that forms a culture substrate on an upper surface of a balloon actuator. The caco-2 cells reached confluence in 7 days. The culture medium was replaced every 24 hours. […]
The culture substrate in the tubular form was perfused with HBSS (Hanks' Balanced Salt Solution) containing fluorescent dyes, as a liquid corresponding to a drug solution, at a flow rate of 0.05 mL min^−1 for 1 hour. […] Thereafter, bright field images and fluorescence images of the caco-2 cells at a bottom part and an upper part of the culture substrate in the tubular form were observed.
FIGS. 16A, 16B, 16C, 16D, 16E and 16G show microscope images of the caco-2 cells. […] FIGS. 16C and 16D show images obtained by imaging fluorescence signals from calcein at the bottom part and the upper part of the culture substrate in the tubular form, respectively. […]

Data set [2] relates to caco-2 cells. Nature of the data set: Evaluation Test 3: absorption of dyes in tubular-form culture substrates having different inner diameters. The settings on record: inner diameter 0.5, 1.0 and 2.0 mm; flow rate 0.05 mL/min, perfused for 3 minutes. It is filed as in vitro ADME. From the text: The inventors of the present application studied dynamic characteristics of a fluid and absorption of a drug into a culture substrate in a tubular form when a liquid such as a drug solution was caused to flow in the culture substrate. Specifically, a fluid containing a drug was caused to flow in a plurality of types of tubular-form culture substrates having different inner diameters, and the states of the culture substrates before and after the flow of the fluid were observed. In addition, dynamic characteristics of the fluid in the respective tubular-form culture substrates were obtained by calculation.
where Q is the flow rate of the liquid, μ is the viscosity of the liquid, ρ is the density of the liquid, L is the length of the tube, and r is the radius of the tube. The flow rate Q of the liquid is 0.05 mL/min, and the liquid was perfused for 3 minutes.
FIGS. 19A, 19B and 19C show images obtained by causing a fluid containing Texas Red as a model of a lipophilic drug to flow in three types of tubular-form culture substrates having different diameters, and imaging fluorescence signals from the Texas Red. […]
FIGS. 20A, 20B and 20C show images obtained by causing a fluid containing calcein as a model of a hydrophilic drug to flow in three types of tubular-form culture substrates having different inner diameters, and imaging fluorescence signals from the calcein.

The values below come from patent publication US20180282679A1, “CELL CULTURE APPARATUS” (The Ritsumeikan Trust, priority 2015, published 2018).

For Texas Red, in the data set on caco-2 cells [1], the “absorption in the caco-2 cells (fluorescence images at bottom part and upper part of the tubular culture substrate)” value is “uniformly absorbed in the caco-2 cells”. In addition, the “speed of absorption depending on inner diameter of the tubular-form culture substrate (fluorescence images)” value in the data set with caco-2 cells [2] is listed as “the smaller the inner diameter of the tube is, the faster the lipophilic drug is absorbed”.

With `O=C(O)CN(CC(=O)O)Cc1cc2c(cc1O)Oc1cc(O)c(CN(CC(=O)O)CC(=O)O)cc1C21OC(=O)c2ccccc21` [calcein], the “absorption in the caco-2 cells (fluorescence images at bottom part and upper part of the tubular culture substrate)” value in the data set with caco-2 cells [1] is “uniformly absorbed in the caco-2 cells”. Besides, the “speed of absorption depending on inner diameter of the tubular-form culture substrate (fluorescence images)” value with caco-2 cells [2] is on record as “substantially no difference was observed in the speed of absorbing the hydrophilic drug”.
